Measured values: US20240361265A1, “APPARATUS AND METHODS FOR EXTRACELLULAR IMPEDANCE SPECTROSCOPY OF BARRIER CELLS” (Georgia Tech Research Corporation, priority 2023, published 2024)

Assays:
[1] = system: iPSC-derived RPE; test: Combined intracellular pipette and EIS (3P-EIS) recording of iPSC-RPE response to apical ATP in modified Ussing chamber; type: cell-based, human; conditions: for membrane-specific capacitance changes: apical ATP stimulation
Experimental: Human iPSC-RPE cells. The study performed the protocol for induced pluripotent stem cell (iPSC) differentiation described in [29]. Briefly, for each individual iPSC line, somatic cells (blood or fibroblasts) were isolated from a single donor and were reprogrammed using the Sendai virus or episomal reprograming methods. Reprogramed iPSC colonies were differentiated into RPE using the protocol described by Sharma et al.. iPSC-derived RPE cells were seeded onto Corning 3406 Transwells, with a seeding density of 300,000 cells/cm^2 and 250,000 cells/cm^2 and were measured at approximately 300 days old. Fully-mature RPE cells were characterized with a transmission electron microscope (TEM) for morphology, gene expression, and immunostaining for RPE-specific markers. For iPSC genotype, TaqMan genotyping assays (ThermoFisher) were used. The following probes were tested: rs1061170 (Assay ID: AHI1TPW; 4331349); rs2230199 (Assay ID: C_26330755_10; 4351379). SNP rs10490924 (Assay ID: C_29934973_20; 4351379). Two human donors were used to derive iPSC-RPE for this experiment. Samples 1 and 2 were derived from donor A, and sample 3 was derived from donor B.
Tissue mounting and maintenance. The study performed the method for mounting the tissue into the modified Ussing chamber for electrophysiology described in [32]. Briefly, a 7 mm diameter, circular section of the iPSC-RPE Transwell was punched out, mounted, and sealed into the chamber, apical side up. Electrical current leak, due to poor sealing between the Ussing chamber and the Transwell punch-out, was minimized by placing a nylon mesh insert beneath the sample so that the iPSC-RPE made contact around the entire circumference of the chamber. The total exposed tissue cross-section was approximately 0.11 cm^2. Experimental solutions were perfused across both sides of the tissue for the entire duration of the experiment.
Electrophysiological solution. The standard, control solution was the same modified Ringer's solution as has been described previously. In brief, the solution contains (in mM): 5 KCl, 116.5 NaCl, 23 NaHCO3, 0.5 MgCl2, 1.8 CaCl2, 2 taurine, 5 glucose, and 10 sucrose. All salts (except for CaCl2) were mixed into de-ionized water at room temperature (20 C). The solution was bubbled for approximately 5 minutes with 95% CO2 before the addition of CaCl2. […] During an experiment, the solution was continuously bubbled with a custom gas mixture (5% CO2, 10% 02, and 85% N2) to maintain the Ringer's solution to a pH near 7.4±0.1.
Measurement Setup and Electrode Configuration. To measure the apical and basolateral bath voltages, Ringer-filled 3.5% agar bridges were connected to saturated KCl baths with submerged, double-junction AgCl reference electrodes (Fisher Scientific, Accumet, cat. No. 13-620-855). AgCl-coated Ag wires (0.01″ diameter) were submerged directly into the apical and basolateral baths to apply current across the tissues during galvanostatic measurements. The Ussing chamber was rotated approximately 30 degrees from horizontal during each experiment to simultaneously enable equal fluidic pressures across the epithelia while simultaneously allowing for apical bath access for intracellular pipettes.
The study performed the protocol for inserting a pipette into the cell's cytoplasm (FIG. 5C, node 3) for intracellular recordings described in [32]. Briefly, a LabVIEW-based controller was used to insert a pipette—backfilled with 150 mM NaCl—into the cytoplasm of a single cell using an N-565.260 piezoelectric motor connected to an E-861.1A1 single-axis controller box (Physik Instrumente). The pipette voltage was amplified using a Multiclamp 700B (Molecular Devices) amplifier, and the trans-epithelial potential (TEP) signal was amplified using a VCC 600 (Physiologic Instruments). The primary output of the Multiclamp 700B had the settings: 10 mV/mV in “Membrane Potential” mode with “gain” set to 1, and the Bessel filter was set to 30 kHz. […]

[2] = system: iPSC-RPE (Z8); test: Extracellular EIS of iPSC-RPE response to apical ATP in perfusion chamber versus Ussing chamber; type: cell-based, human
Experimental: EIS measurements were performed with an Autolab PGSTAT204 with a FRA32M […] (Utrecht, Netherlands). The device was controlled with the provided NOVA 2.1.5 software to perform frequency sweeps from 0.1 Hz to 10 kHz. The NOVA software was used to send up to 5 simultaneous frequencies spaced to approximately 5 unique measurements per decade. The PGSTAT working electrode was connected to the working electrode and counter electrode; the sense and reference electrodes were connected to the basal and apical baths through the Ringer-based agar bridges (connected to Ag|AgClreference electrodes in a saturated KCl bath), respectively.
Chamber design and extracellular epithelial properties: A custom device was assembled to rapidly and noninvasively evaluate the evoked responses and recovery of RPE to extracellular ATP (FIG. 4.3).
The “perfusion” chamber in FIG. 8A was created using the same Acrylic material as the Ussing chamber but was designed to interface with an intact, 12-well Transwell insert (Corning costar 3460). Ag|AgCl wires were used as the working and counter electrodes. These electrodes were shaped into a symmetric ring of maximum diameter that fits inside the chamber and placed as far from the epithelia as possible to maximize uniformity of the current flux across the tissue. The sense and reference electrodes (used to measure TEP) were single-junction KCl reference electrodes. The KCl reference electrode was constructed with an Ag|AgCl wire that was inserted in a glass body (1.5 mm outer diameter) and backfilled with 3 M KCl. The terminus of these electrodes was made of a Vycor frit that enabled electrical contact between the 3 M KCl solution and the perfusate. Ag|AgCl electrodes were selected due to their rapid and reversible redox reactions, and the bridges were designed to minimize the effect of drifting Cl− ion concentrations on the electrode junction potential. The sense and reference electrodes were inserted through the cylinders extruding through the top of the device such that they were positioned as close as possible to the tissue. The design of the Acrylic cylinders included a kinematic constraint for the electrodes to ensure that the distance between the tissue and voltage-sensing probes was consistent across all experiments.
For example, the magnitudes of extracellular tissue properties in normal Ringer's solution should be compared.
Furthermore, to ensure that the perfusion device can maintain the health and function of epithelia during long experiments, a simple experiment was devised to last at least 45 min; sufficient for rigorous RPE experiments performed in literature ([39′], [7′]). During this experiment the tissues were briefly exposed (approximately 10 min) to 100 μM ATP at the apical membrane. […]

SMILES: Nc1ncnc2c1ncn2[C@@H]1O[C@H](COP(=O)(O)OP(=O)(O)OP(=O)(O)O)[C@@H](O)[C@H]1O [ATP, adenosine triphosphate]
- apical membrane resistance decrease ([1]; 100 μM apical ATP exposure, sample 1): 62%
- apical membrane resistance increase ([1]; 100 μM apical ATP exposure, sample 2): 89%
- apical membrane resistance increase ([1]; 100 μM apical ATP exposure, sample 3): 139%
- membrane-specific capacitance changes ([1]; Sample 1): did not display ATP650-induced changes
- membrane-specific capacitance changes ([1]; Samples 2 and 3): concurrent reductions in apical capacitance and elevations in basolateral capacitance
- depolarization of the apical membrane (Va) ([1]; by the end of the ATP exposure, all three samples): approximately 20 mV
- change in apical capacitance Ca ([1]; during ATP administration): 12%
- change in basolateral capacitance Cb ([1]; during ATP administration): −6%
- TER response ([1]; during ATP exposure, 3P-Classical or exemplary method): decrease in TER
- basolateral resistance (Rb) response ([1]; during ATP exposure, Sample 3): expected reduction
- shunt resistance (Rs) response ([1]; during ATP exposure, all samples): rapid and substantial decrease
- depolarization of the apical membrane (Va) ([1]; first phase of the ATP-induced response, Sample 3): 10 mV
- depolarization of the apical membrane (Va) ([1]; first phase of the ATP-induced response, Samples 1 and 2): 20 mV
- TEP response ([1]; remainder of the ATP exposure, all three samples): increase in TEP
- tissue capacitance (Ct) average decrease ([2]; 100 μM apical ATP, about 10 min, Ussing chamber): 3%
- tissue capacitance (Ct) average increase ([2]; 100 μM apical ATP, about 10 min, perfusion chamber): 11%
- time to return to within 95% of baseline after ATP ([2]; both perfusion and Ussing chambers): ≤ 40 min
- extracellular time constant ratio response ([2]; during ATP exposure, samples 1, 2 and 3, Ussing chamber): increased in magnitude
